{"source": "ChEMBL document CHEMBL4411258", "about": "“Novel natural compounds from endophytic fungi with anticancer activity” (Eur J Med Chem, 2018)", "key": {"RPMI-8226": {"test_system": "RPMI-8226", "experiment": "Cytotoxicity against human RPMI8226 cells after 48 hrs by MTT assay", "assay_type": "functional, cell-based", "conditions": "RPMI-8226, 48 h"}, "SGC-7901": {"test_system": "SGC-7901", "experiment": "Cytotoxicity against human SGC7901 cells by MTT assay", "assay_type": "functional, cell-based"}, "MDA-MB-435 [1]": {"test_system": "MDA-MB-435", "experiment": "Cytotoxicity against human MDA-MB-435 cells by MTT assay", "assay_type": "functional, cell-based"}, "A549 [2]": {"test_system": "A549", "experiment": "Cytotoxicity against human A549 cells by MTT assay", "assay_type": "functional, cell-based"}, "HepG2 [3]": {"test_system": "HepG2", "experiment": "Cytotoxicity against human HepG2 cells after 24 hrs by MTT assay", "assay_type": "functional, cell-based", "conditions": "HepG2, 24 h"}, "[4]": {"experiment": "Inhibition of RANKL-induced NFkappaB (unknown origin) activation expressed in mouse RAW264.7 cells preincubated for 1 hr followed by RANKL stimulation and measured after 6 hrs by luciferase reporter gene based assay", "assay_type": "cell-based"}, "[5]": {"experiment": "Inhibition of TNFalpha-induced NFkappaB (unknown origin) activation expressed in HEK293 cells preincubated for 1 hr followed by TNFalpha stimulation and measured after 1 hr by dual luciferase reporter gene assay", "assay_type": "cell-based", "conditions": "Homo sapiens"}, "NCI-H460": {"test_system": "NCI-H460", "experiment": "Cytotoxicity against human NCI-H460 cells", "assay_type": "functional, cell-based"}, "SH-SY5Y": {"test_system": "SH-SY5Y", "experiment": "Cytotoxicity against human SH-SY5Y cells by MTT assay", "assay_type": "functional, cell-based"}, "MCF7": {"test_system": "MCF7", "experiment": "Cytotoxicity against human MCF7 cells by MTT assay", "assay_type": "functional, cell-based"}, "NB-4": {"test_system": "NB-4", "experiment": "Cytotoxicity against human NB4 cells by MTT assay", "assay_type": "functional, cell-based"}, "T47D": {"test_system": "T47D", "experiment": "Cytotoxicity against human T47D cells after 48 hrs by MTT assay", "assay_type": "functional, cell-based"}, "HL-60 [6]": {"test_system": "HL-60", "experiment": "Cytotoxicity against human HL60 cells by MTT assay", "assay_type": "functional, cell-based"}, "[7]": {"target": "Polyunsaturated fatty acid 5-lipoxygenase (Homo sapiens) (UniProt P09917)", "sequence (P09917 whole entry)": "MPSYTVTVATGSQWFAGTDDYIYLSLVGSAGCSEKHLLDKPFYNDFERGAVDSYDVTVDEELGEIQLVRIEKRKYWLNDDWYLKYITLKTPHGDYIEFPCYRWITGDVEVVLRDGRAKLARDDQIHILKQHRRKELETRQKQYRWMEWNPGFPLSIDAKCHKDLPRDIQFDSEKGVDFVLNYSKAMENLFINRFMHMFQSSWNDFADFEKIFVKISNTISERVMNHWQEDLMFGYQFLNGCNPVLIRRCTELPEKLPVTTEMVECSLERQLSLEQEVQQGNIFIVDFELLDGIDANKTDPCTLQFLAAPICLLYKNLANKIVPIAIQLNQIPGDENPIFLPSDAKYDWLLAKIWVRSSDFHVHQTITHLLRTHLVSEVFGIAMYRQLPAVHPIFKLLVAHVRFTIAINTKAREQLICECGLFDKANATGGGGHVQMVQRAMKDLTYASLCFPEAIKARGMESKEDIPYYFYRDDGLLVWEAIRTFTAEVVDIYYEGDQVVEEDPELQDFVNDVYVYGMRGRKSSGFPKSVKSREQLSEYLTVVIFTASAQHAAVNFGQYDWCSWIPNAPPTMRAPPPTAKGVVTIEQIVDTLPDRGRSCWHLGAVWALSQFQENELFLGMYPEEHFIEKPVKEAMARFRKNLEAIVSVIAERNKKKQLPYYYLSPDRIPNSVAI", "experiment": "Inhibition of 5-LOX (unknown origin) at 30 ug/ml relative to control"}, "MKN-45": {"test_system": "MKN-45", "experiment": "Cytotoxicity against human MKN45 cells after 24 hrs by MTT assay", "assay_type": "functional, cell-based", "conditions": "MKN-45, 24 h"}, "HL-60 [8]": {"test_system": "HL-60", "experiment": "Cytotoxicity against human HL60 cells after 24 hrs by MTT assay", "assay_type": "functional, cell-based", "conditions": "HL-60, 24 h"}, "A549 [9]": {"test_system": "A549", "experiment": "Cytotoxicity against human A549 cells after 24 hrs by MTT assay", "assay_type": "functional, cell-based", "conditions": "A549, 24 h"}, "LoVo": {"test_system": "LoVo", "experiment": "Cytotoxicity against human LoVo cells after 24 hrs by MTT assay", "assay_type": "functional, cell-based"}, "KB": {"test_system": "KB", "experiment": "Cytotoxicity against human KB cells by MTT assay", "assay_type": "functional, cell-based"}, "L5178Y": {"test_system": "L5178Y", "experiment": "Cytotoxicity against mouse L5178Y cells by MTT assay", "assay_type": "functional, cell-based"}, "PC-12": {"test_system": "PC-12", "experiment": "Cytotoxicity against rat PC12 cells by MTT assay", "assay_type": "functional, cell-based"}, "[10]": {"experiment": "Inhibition of TNFalpha-induced NFkappaB (unknown origin) activation expressed in HEK293 cells after 6 hrs by luciferase reporter gene based assay", "assay_type": "cell-based", "conditions": "Homo sapiens, HEK293, 6 h"}, "A2780": {"test_system": "A2780", "experiment": "Cytotoxicity against human A2780 cells after 72 hrs by MTT assay", "assay_type": "functional, cell-based", "conditions": "A2780, 72 h"}, "MDA-MB-435 [11]": {"test_system": "MDA-MB-435", "experiment": "Cytotoxicity against human MDA-MB-435 cells after 72 hrs by MTT assay", "assay_type": "functional, cell-based", "conditions": "MDA-MB-435, 72 h"}, "HepG2 [12]": {"test_system": "HepG2", "experiment": "Cytotoxicity against human HepG2 cells after 72 hrs by MTT assay", "assay_type": "functional, cell-based", "conditions": "HepG2, 72 h"}, "HCT-116": {"test_system": "HCT-116", "experiment": "Cytotoxicity against human HCT116 cells after 72 hrs by MTT assay", "assay_type": "functional, cell-based", "conditions": "HCT-116, 72 h"}, "HeLa": {"test_system": "HeLa", "experiment": "Cytotoxicity against human HeLa cells by MTT assay", "assay_type": "functional, cell-based"}}, "data": [{"molecule": "CC(C)=C1CC[C@@]2(C)OC3=C(C[C@@H]12)C(=O)[C@]1(O)CO[C@H]3C1", "values": [{"measurement": "IC50", "setting": "RPMI-8226", "result": 83.7, "unit": "µM"}]}, {"molecule": "CC1=C[C@@H]2/C=C/C[C@H](C)/C=C(\\C)C(=O)C(=O)/C=C/C(=O)[C@]23C(=O)N[C@H]2Cc4c([nH]c5ccccc45)[C@@]1(C)[C@@H]23", "values": [{"measurement": "IC50", "setting": "SGC-7901", "result": 5.32, "unit": "µM"}, {"measurement": "IC50", "setting": "MDA-MB-435 [1]", "result": 4.65, "unit": "µM"}, {"measurement": "IC50", "setting": "A549 [2]", "result": 8.73, "unit": "µM"}]}, {"molecule": "CC(=O)OC(CC=C(C)C)C[C@@]1(C)CCC[C@H]2[C@@]3(C)C=CC(=O)[C@@H](C)[C@@H]3[C@H](OC(C)=O)C(=O)[C@@]21C", "note": "(stereo not given in full)", "values": [{"measurement": "IC50", "setting": "HepG2 [3]", "result": 140, "unit": "µM"}]}, {"molecule": "COC(=O)c1cc(OC)cc2c1C(=O)[C@H]([C@@H](O)CC(C)=O)CO2", "values": [{"measurement": "IC50", "setting": "[4]", "result": "30 to 46", "unit": "µM"}]}, {"molecule": "C[C@@H]1CO[C@@]2(O)[C@@H]1C[C@]1(C)[C@@H](C)CC[C@H](O)[C@@]13O[C@@H]23", "values": [{"measurement": "IC50", "setting": "[5]", "result": 7.11, "unit": "µM"}]}, {"molecule": "C=CC1(C)c2[nH]c3cc4c(cc3c2C[C@H]2C(=O)N3CCC[C@H]3C(=O)N21)C=CC(C)(C)O4", "note": "(stereo not given in full)", "values": [{"measurement": "IC50", "setting": "NCI-H460", "result": 69.3, "unit": "µM"}]}, {"molecule": "COC(=O)[C@@H]1c2c(oc3cc(CO)cc(OC)c3c2=O)C=C[C@H]1O", "values": [{"measurement": "IC50", "setting": "SH-SY5Y", "result": 4.9, "unit": "µM"}, {"measurement": "IC50", "setting": "MCF7", "result": 8.8, "unit": "µM"}, {"measurement": "IC50", "setting": "NB-4", "result": 8.6, "unit": "µM"}, {"measurement": "IC50", "setting": "A549 [2]", "result": 5.7, "unit": "µM"}]}, {"molecule": "C=CC1=CC2=CC(=O)[C@](C)(OC(=O)/C=C/C(C)=C/[C@@H](C)CCCC)C(=O)C2=CO1", "values": [{"measurement": "IC50", "setting": "T47D", "result": "1 to 10", "unit": "µM"}]}, {"molecule": "CC1=C(C)C2=CC(=O)C3=C(C(=O)c4oc(C)cc4C3=O)[C@@]2(C)CC1=O", "values": [{"measurement": "IC50", "setting": "HL-60 [6]", "result": 12.5, "unit": "µM"}]}, {"molecule": "CC1=C[C@@H]2/C=C/C[C@H](C)/C=C(\\C)CC(=O)/C=C/C(=O)[C@]23C(=O)N[C@@H](Cc2c[nH]c4ccccc24)[C@@H]3[C@@H]1C", "note": "[PROCHEATOGLOBOSIN II]", "values": [{"measurement": "IC50", "setting": "SGC-7901", "result": 37.7, "unit": "µM"}, {"measurement": "IC50", "setting": "MDA-MB-435 [1]", "result": 36.9, "unit": "µM"}, {"measurement": "IC50", "setting": "A549 [2]", "result": 35.9, "unit": "µM"}]}, {"molecule": "COC1=C2c3cc(OC)cc(O)c3C(=O)O[C@@]2(C)CC1=O", "values": [{"measurement": "IC50", "setting": "HL-60 [6]", "result": "> 200", "unit": "µM"}]}, {"molecule": "COC1=C2c3cc(OC)cc(O)c3C(=O)O[C@]2(C)CC1=O", "values": [{"measurement": "IC50", "setting": "HL-60 [6]", "result": 75.3, "unit": "µM"}]}, {"molecule": "CCCCC(O)/C=C/C1=C(CO)[C@@H](O)[C@@H](O)[C@](Cl)(C/C=C(\\C)C(=O)O)C1=O", "note": "(stereo not given in full)", "values": [{"measurement": "inhibition", "setting": "[7]", "result": 48.3, "unit": "%"}]}, {"molecule": "CCCC[C@H](O)C(=O)C/C(=C\\C(=O)O)OC", "values": [{"measurement": "IC50", "setting": "MKN-45", "result": "< 200", "unit": "µM"}, {"measurement": "IC50", "setting": "HL-60 [8]", "result": "< 200", "unit": "µM"}, {"measurement": "IC50", "setting": "A549 [9]", "result": "< 200", "unit": "µM"}, {"measurement": "IC50", "setting": "LoVo", "result": "< 200", "unit": "µM"}]}, {"molecule": "COC(=O)c1cc(OC)cc(OC)c1C(=O)c1coc2c1OC(C)CC2=O", "note": "(stereo not given)", "values": [{"measurement": "IC50", "setting": "KB", "result": 4.7, "unit": "µM"}]}, {"molecule": "COc1cccc2c1C(=O)c1c(O)c3c(c(O)c1C2=O)C[C@@](O)(C(=O)CO)C[C@@H]3O[C@H]1C[C@H](N)[C@H](O)[C@H](C)O1", "note": "[DOXORUBICIN]", "values": [{"measurement": "IC50", "setting": "L5178Y", "result": 4.6, "unit": "µM"}, {"measurement": "IC50", "setting": "PC-12", "result": 5.71, "unit": "µM"}]}, {"molecule": "CCCCC[C@@H]1OC2=C(C(=O)N(OC)C2CSC[C@@H](O)C(=O)O)[C@H](O)[C@@]1(C)O", "note": "(stereo not given in full)", "values": [{"measurement": "IC50", "setting": "[10]", "result": 7.1, "unit": "µM"}]}, {"molecule": "CO[C@H]1C[C@H](O)C2=C(C[C@H]3C(=C(C)C)CC[C@@]3(C)O2)C1=O", "values": [{"measurement": "IC50", "setting": "RPMI-8226", "result": 92.1, "unit": "µM"}]}, {"molecule": "CO[C@]12OC[C@@H](C)[C@H]1C[C@]1(C)[C@@H](C)CC[C@H](O)[C@@]13O[C@@H]23", "values": [{"measurement": "IC50", "setting": "[5]", "result": 19.2, "unit": "µM"}]}, {"molecule": "O=C1N[C@@]2(Cc3ccccc3O2)C(=O)N/C1=C\\c1ccccc1O", "values": [{"measurement": "IC50", "setting": "A2780", "result": 59, "unit": "µM"}]}, {"molecule": "O=Cc1cc(/C=C/c2cc(O)cc(O)c2)ccc1O", "values": [{"measurement": "IC50", "setting": "MDA-MB-435 [11]", "result": "< 50", "unit": "µM"}, {"measurement": "IC50", "setting": "HepG2 [12]", "result": "< 50", "unit": "µM"}, {"measurement": "IC50", "setting": "HCT-116", "result": "< 50", "unit": "µM"}]}, {"molecule": "C[C@@H]1CC[C@@]23[C@H](C)CC[C@@H](C[C@H]2[C@]2(C)CC(=O)[C@H]12)C3(C)C", "values": [{"measurement": "IC50", "setting": "HeLa", "result": 30.1, "unit": "µM"}, {"measurement": "IC50", "setting": "MCF7", "result": 30.7, "unit": "µM"}]}, {"molecule": "CC1=C[C@@H]2/C=C/C[C@H](C)/C=C(\\C)[C@@H](O)C(=O)/C=C/C(=O)[C@]23C(=O)N[C@H]2Cc4c([nH]c5ccccc45)[C@@]1(C)[C@@H]23", "values": [{"measurement": "IC50", "setting": "SGC-7901", "result": 7.32, "unit": "µM"}, {"measurement": "IC50", "setting": "MDA-MB-435 [1]", "result": 7.55, "unit": "µM"}, {"measurement": "IC50", "setting": "A549 [2]", "result": 16.1, "unit": "µM"}]}, {"molecule": "CCCC[C@H](C)/C=C(C)/C=C/C(=O)O", "values": [{"measurement": "IC50", "setting": "T47D", "result": "1 to 10", "unit": "µM"}]}]}
